Where “and” joins values, the source holds several entries; their conditions need not be identical. Identical values can stand only once.
How the values were obtained:
[1] = background; cited from earlier work
[2] = Physical stability testing: stressing solids at elevated relative humidity or storage, monitored by XRPD; format: physicochemical
[3] = Approximate aqueous solubility by aliquot addition; settings: for Solubility: approximate aqueous solubility; for Observations (solubility experiment): aqueous
Description: The small sample sizes, aliquot volumes, and kinetic nature of the solubility measurements contribute a degree of uncertainty to the reported values.

[4] = Dynamic Vapor Sorption (DVS); format: physicochemical; settings: for DVS weight loss: desorption 95-6% RH; for DVS weight loss / DVS weight gain: 10% RH increments, nitrogen purge; for Solid form post-DVS (XRPD): post-DVS solids; for DVS weight gain: sorption 5-95% RH
Description: DVS data was collected on a Surface Measurement System DVS Intrinsic instrument. Samples were not dried prior to analysis. […] The equilibrium criterion used for analysis was less than 0.0100% weight change in 5 minutes with a maximum equilibration time of 3 hours. Data was not corrected for the initial moisture content of the samples.

[5] = listed as O-methyl Mandelate Form A

SMILES: CNC(C)Cc1ccc2c(c1)OCO2 (centres unmarked) [MDMA free base, 3,4-Methylenedioxymethamphetamine]
- Solubility in water (in words) [1]: insoluble in water

SMILES: CNC(C)Cc1ccc2c(c1)OCO2.Cl (centres unmarked) [MDMA hydrochloride salt]
- Solubility in water (in words) [1]: soluble in water

SMILES: CN[C@H](C)Cc1ccc2c(c1)OCO2.O=[N+]([O-])O [Nitrate Form A]
- Physical stability upon stressing at ~90% RH ([2]; 13 days): remained physically stable
- Solubility [3]: 3 ± 1 mg/mL and 3 mg/mL
- Observations (solubility experiment) [3]: clear solution

SMILES: CN[C@H](C)Cc1ccc2c(c1)OCO2.COC(C(=O)O)c1ccccc1 [O-Methyl Mandelate Form A]
- Physical stability upon stressing at ~90% RH ([2]; 8 days): remained physically stable
- DVS desorption behaviour / hysteresis ([4]; 5% to 95% RH): all mass gained in sorption was lost on desorption with minimal hysteresis
- Hygroscopicity (in words) ([4]; DVS isotherm): low kinetic hygroscopicity
- Kinetic hygroscopicity (sorption/desorption) ([4]; between 5% and 95% RH): 0.2%
- DVS weight loss [4]: 0.21±0.02%
- DVS weight loss [4, 5]: 0.21%
- Solid form post-DVS (XRPD) [4]: remained unchanged
- Solid form post-DVS (XRPD) [4, 5]: O-Methyl Mandelate Form A
- DVS weight gain [4]: 0.18±0.02% and 0.18%
- DVS weight gain [4, 5]: 0.18%
- Solubility [3]: 26 ± 1 mg/mL and ~26 mg/mL
- Observations (solubility experiment) [3]: clear solution

Reference: patent US20260132118A1, “SALT FORMS OF R-MDMA AND METHODS USING THE SAME” (EmpathBio, Inc., priority 2022, published 2026)
